For 36 compounds, EC50 results are on record in patent publication US10059713B2 (Takeda Pharmaceutical Company Limited, priority 2014, dated 2018).

Broadly, the EC50 is the midpoint of the concentration-response curve. Low values mean higher potency in that assay, high ones lower potency in that assay.

The assay addresses human GPR43 (Homo sapiens (Human), UniProt O15552). The assay can be described thus: Ca-Flux functional assay: determination of agonist/positive allosteric modulator (PAM) activity. It is filed as cell-based. Conditions: CHO-K1 Gα16 cells stably expressing human GPR43; compound added with EC20 sodium acetate; intracellular Ca2+ by FLIPR; does not distinguish agonist from PAM. In short, it runs like this: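 CHO-K1 Gα16 cells stably expressing human GPR43, loaded with Calcium 5 dye 1 h; compounds (10-point half-log from 10 μM) added with sodium acetate at EC20. FLIPR calcium signal gave EC50, two wells per point; agonists and PAMs not distinguished.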

human GPR43, sequence (O15552 whole entry): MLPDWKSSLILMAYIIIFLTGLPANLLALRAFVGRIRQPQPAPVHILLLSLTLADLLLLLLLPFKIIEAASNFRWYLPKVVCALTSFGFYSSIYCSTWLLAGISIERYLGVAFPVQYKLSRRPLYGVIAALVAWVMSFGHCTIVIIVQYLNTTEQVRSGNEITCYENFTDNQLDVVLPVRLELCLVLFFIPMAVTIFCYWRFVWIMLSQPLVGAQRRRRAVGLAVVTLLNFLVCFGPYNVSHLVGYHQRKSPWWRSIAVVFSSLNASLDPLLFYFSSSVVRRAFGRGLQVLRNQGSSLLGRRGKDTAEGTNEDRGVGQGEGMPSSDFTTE

Compound `COc1ccc(S(=O)(=O)c2c(N)[nH]c3c(N4CCOC(C)C4)ncnc23)cc1` (stereo not drawn) [Example 107, 7-(4-methoxybenzenesulfonyl)-4-(2-methylmorpholin-4-yl)-5H-pyrrolo[3,2-d]pyrimidin-6-amine] registered an EC50 of 0.041 µM.

In turn, `Cc1nc(N2CCO[C@@H](C)C2)c2[nH]c(N)c(S(=O)(=O)c3ccc(Cl)cc3F)c2n1` [Example 235, 7-(4-chloro-2-fluorobenzenesulfonyl)-2-methyl-4-[(2S)-2-methylmorpholin-4-yl]-5H-pyrrolo[3,2-d]pyrimidin-6-amine] returned an EC50 of 0.002 µM.

In turn, `COc1ccc(S(=O)(=O)c2c(N)[nH]c3c(N4CCOC(C)C4)ncnc23)cc1Cl` (stereo not drawn) [Example 123, 7-(3-chloro-4-methoxybenzenesulfonyl)-4-(2-methylmorpholin-4-yl)-5H-pyrrolo[3,2-d]pyrimidin-6-amine] yielded an EC50 of 0.115 µM.

With `Cc1nc(N2C[C@H](C)OC[C@@H]2C)c2[nH]c(N)c(S(=O)(=O)c3ccccc3)c2n1` [Example 220, 7-(benzenesulfonyl)-4-[(2S,5S)-2,5-dimethylmorpholin-4-yl]-2-methyl-5H-pyrrolo[3,2-d]pyrimidin-6-amine], the EC50 is 0.021 µM.

Regarding `CC1CN(c2ncnc3c(Sc4ccccc4)c(N)[nH]c23)CCO1` (stereo not drawn) [Example 236, 4-(2-methylmorpholin-4-yl)-7-(phenylsulfanyl)-5H-pyrrolo[3,2-d]pyrimidin-6-amine], the midpoint of the response, the EC50, lay at 0.042 µM.

`Cc1nc(N2CCCC(C)C2)c2[nH]c(N)c(S(=O)(=O)c3cccc(F)c3)c2n1` (stereo not drawn) [Example 198, 7-(3-fluorobenzenesulfonyl)-2-methyl-4-(3-methylpiperidin-1-yl)-5H-pyrrolo[3,2-d]pyrimidin-6-amine] showed an EC50 of 0.031 µM.

For `COC(=O)Nc1[nH]c2c(C3=CCCCC3)ncnc2c1S(=O)(=O)c1ccccc1` [Example 17, Methyl-N-[7-(benzenesulfonyl)-4-(cyclohex-1-en-1-yl)-5H-pyrrolo[3,2-d]pyrimidin-6-yl]carbamate], the EC50 worked out at 5.09 µM. Against the preceding compound, the EC50 is about 160-fold higher.

`Cc1nc(N2CCOC(C)(C)C2)c2[nH]c(N)c(S(=O)(=O)c3cccc(F)c3)c2n1` [Example 191, 4-(2,2-dimethylmorpholin-4-yl)-7-(3-fluorobenzenesulfonyl)-2-methyl-5H-pyrrolo[3,2-d]pyrimidin-6-amine] registered an EC50 of 0.043 µM. Against the preceding compound, the EC50 is about 120-fold lower.

With `C[C@@H]1CN(c2ncnc3c(S(=O)(=O)c4ccccc4)c(N)[nH]c23)C[C@@H](C)O1` [Example 87, 7-(benzenesulfonyl)-4-[(2R,6R)-2,6-dimethylmorpholin-4-yl]-5H-pyrrolo[3,2-d]pyrimidin-6-amine], the EC50 amounted to 0.034 µM.

As for `Cc1nc(N2CCO[C@@H](C(F)(F)F)C2)c2[nH]c(N)c(S(=O)(=O)c3ccccc3F)c2n1` [Example 289, 7-(2-fluorobenzenesulfonyl)-2-methyl-4-[(2R)-2-(trifluoromethyl)morpholin-4-yl]-5H-pyrrolo[3,2-d]pyrimidin-6-amine], the EC50 was 0.001 µM.

In turn, `CC1CN(c2ncnc3c(S(=O)(=O)c4ccccc4)c(N)[nH]c23)CCO1` (stereo not drawn) [Example 52, 7-(benzenesulfonyl)-4-(2-methylmorpholin-4-yl)-5H-pyrrolo[3,2-d]pyrimidin-6-amine] yielded a 50% effective concentration (EC50) of 0.043 µM.

Compound `Cc1nc(N2CCOC(C(F)(F)F)C2)c2[nH]c(N)c(S(=O)(=O)c3ccccc3F)c2n1` (stereo not drawn) [Example 231, 7-(2-fluorobenzenesulfonyl)-2-methyl-4-[2-(trifluoromethyl)morpholin-4-yl]-5H-pyrrolo[3,2-d]pyrimidin-6-amine] came in with an EC50 of 0.002 µM.

As for `Nc1[nH]c2c(N3CCOC4(CC4)C3)ncnc2c1S(=O)(=O)c1ccccc1` [Example 151, 7-(benzenesulfonyl)-4-{4-oxa-7-azaspiro[2.5]octan-7-yl}-5H-pyrrolo[3,2-d]pyrimidin-6-amine], the EC50 turned out to be 0.023 µM.

With `Cc1ccccc1-c1ncnc2c(S(=O)(=O)c3ccccc3)c(N)[nH]c12` [Example 108, 7-(benzenesulfonyl)-4-(2-methylphenyl)-5H-pyrrolo[3,2-d]pyrimidin-6-amine], a half-maximal effect (EC50) was put at 0.092 µM.

Take `Nc1[nH]c2c(C3=CCCCC3)ncnc2c1S(=O)(=O)c1ccc(F)c(F)c1` [Example 49, 4-(cyclohex-1-en-1-yl)-7-[(3,4-difluorobenzene)sulfonyl]-5H-pyrrolo[3,2-d]pyrimidin-6-amine]: the EC50 came to 0.113 µM.

As for `Nc1[nH]c2c(OCc3ccccc3)ncnc2c1S(=O)(=O)c1ccccc1` [Example 168, 7-(benzenesulfonyl)-4-(benzyloxy)-5H-pyrrolo[3,2-d]pyrimidin-6-amine], the EC50 worked out at 0.134 µM.

`CC1CN(c2ncnc3c(S(=O)(=O)c4ccccc4)c(N)[nH]c23)C(C)CO1` (stereo not drawn) [Example 85, 7-(benzenesulfonyl)-4-(2,5-dimethylmorpholin-4-yl)-5H-pyrrolo[3,2-d]pyrimidin-6-amine] had an EC50 of 0.019 µM.

The compound `Cc1nc(C2CCCC2)c2[nH]c(N)c(S(=O)(=O)c3cccc(F)c3)c2n1` [Example 209, 4-cyclopentyl-7-(3-fluorobenzenesulfonyl)-2-methyl-5H-pyrrolo[3,2-d]pyrimidin-6-amine] displayed an EC50 of 0.303 µM.

Consider `Cc1nc(OC(C)C2CC2)c2[nH]c(N)c(S(=O)(=O)c3ccccc3)c2n1` (stereo not drawn) [Example 230, 7-(benzenesulfonyl)-4-(1-cyclopropylethoxy)-2-methyl-5H-pyrrolo[3,2-d]pyrimidin-6-amine], for which the EC50 turned out to be 0.022 µM.

Turning to `COc1ccccc1CN(C)c1ncnc2c(S(=O)(=O)c3ccccc3)c(N)[nH]c12` [Example 92, 7-(benzenesulfonyl)-4-N-[(2-methoxyphenyl)methyl]-4-N-methyl-5H-pyrrolo[3,2-d]pyrimidine-4,6-diamine], the EC50 was 0.209 µM.

For the compound `COCCOc1ncnc2c(S(=O)(=O)c3ccccc3)c(N)[nH]c12` [Example 174, 7-(benzenesulfonyl)-4-(2-methoxyethoxy)-5H-pyrrolo[3,2-d]pyrimidin-6-amine], the EC50 worked out at 6.62 µM.

`Nc1[nH]c2c(N3CCCCCC3)ncnc2c1S(=O)(=O)c1ccccc1` [Example 48, 4-(azepan-1-yl)-7-(benzenesulfonyl)-5H-pyrrolo[3,2-d]pyrimidin-6-amine] returned an EC50 of 0.209 µM.

For the compound `Nc1[nH]c2cc(C3=CCCCC3)cnc2c1S(=O)(=O)c1ccccc1` [Example 25, 3-(benzenesulfonyl)-6-(cyclohex-1-en-1-yl)-1H-pyrrolo[3,2-b]pyridin-2-amine], the EC50 stood at 0.288 µM.

In the case of `Nc1[nH]c2c(C3CCCC3)ncnc2c1S(=O)(=O)c1ccccc1F` [Example 88, 4-cyclopentyl-7-(2-fluorobenzenesulfonyl)-5H-pyrrolo[3,2-d]pyrimidin-6-amine], it took 0.021 µM to reach a half-maximal effect (EC50).

In the case of `CCN(C)c1ncnc2c(S(=O)(=O)c3ccccc3)c(N)[nH]c12` [Example 97, 7-(benzenesulfonyl)-4-N-ethyl-4-N-methyl-5H-pyrrolo[3,2-d]pyrimidine-4,6-diamine], a half-maximal effect (EC50) was put at 0.447 µM.

The compound `Nc1[nH]c2c(OCC3CCOCC3)ncnc2c1S(=O)(=O)c1ccccc1` [Example 169, 7-(benzenesulfonyl)-4-(oxan-4-ylmethoxy)-5H-pyrrolo[3,2-d]pyrimidin-6-amine] came in with an EC50 of 1.89 µM.

As for `CC1CN(c2nc(N(C)C)nc3c(S(=O)(=O)c4ccccc4F)c(N)[nH]c23)CCO1` (stereo not drawn) [Example 270, 7-(2-fluorobenzenesulfonyl)-2-N,2-N-dimethyl-4-(2-methylmorpholin-4-yl)-5H-pyrrolo[3,2-d]pyrimidine-2,6-diamine], a half-maximal effect (EC50) was put at 0.017 µM.

Regarding `Cc1nc(N2CCOC3(CC3)C2)c2[nH]c(N)c(S(=O)(=O)c3ccccc3)c2n1` [Example 205, 7-(benzenesulfonyl)-2-methyl-4-{4-oxa-7-azaspiro[2.5]octan-7-yl}-5H-pyrrolo[3,2-d]pyrimidin-6-amine], a half-maximal effect (EC50) was put at 0.007 µM.

Turning to `Nc1[nH]c2c(C3CCCCC3)ncnc2c1S(=O)(=O)c1ccc(F)c(F)c1` [Example 60, 4-cyclohexyl-7-(3,4-difluorobenzenesulfonyl)-5H-pyrrolo[3,2-d]pyrimidin-6-amine], it took 0.182 µM to reach a half-maximal effect (EC50). Compared with the last compound, the EC50 is about 26-fold higher.

The compound `CC(C)C1CN(c2ncnc3c(S(=O)(=O)c4ccccc4)c(N)[nH]c23)CCO1` (stereo not drawn) [Example 184, 7-(benzenesulfonyl)-4-[2-(propan-2-yl)morpholin-4-yl]-5H-pyrrolo[3,2-d]pyrimidin-6-amine] yielded an EC50 of 0.083 µM.

Compound `Cc1nc(N2CCOC(C)(C)C2)c2[nH]c(N)c(S(=O)(=O)c3ccccc3F)c2n1` [Example 185, 4-(2,2-dimethylmorpholin-4-yl)-7-(2-fluorobenzenesulfonyl)-2-methyl-5H-pyrrolo[3,2-d]pyrimidin-6-amine] had an EC50 of 0.006 µM.

`Cc1nc(N2CCC(F)(F)CC2)c2[nH]c(N)c(S(=O)(=O)c3ccccc3)c2n1` [Example 142, 7-(benzenesulfonyl)-4-(4,4-difluoropiperidin-1-yl)-2-methyl-5H-pyrrolo[3,2-d]pyrimidin-6-amine] came in with an EC50 of 0.02 µM.

As for `CN(CC(F)F)c1ncnc2c(S(=O)(=O)c3ccccc3)c(N)[nH]c12` [Example 96, 7-(benzenesulfonyl)-4-N-(2,2-difluoroethyl)-4 N-methyl-5H-pyrrolo[3,2-d]pyrimidine-4,6-diamine], the half-maximal effective concentration (EC50) was 0.162 µM. This EC50 is about 8.1-fold higher than that of the compound before.

`Nc1[nH]c2c(/C=C/C3CC3)ncnc2c1S(=O)(=O)c1ccccc1` [Example 11, 7-(benzenesulfonyl)-4-[(E)-2-cyclopropylethenyl]-5H-pyrrolo[3,2-d]pyrimidin-6-amine] returned an EC50 of 0.112 µM.

In the case of `COC[C@H]1CCCN1c1ncnc2c(S(=O)(=O)c3ccccc3)c(N)[nH]c12` [Example 118, 7-(benzenesulfonyl)-4-[(2R)-2-(methoxymethyl)pyrrolidin-1-yl]-5H-pyrrolo[3,2-d]pyrimidin-6-amine], the EC50 was 5.18 µM.

`Cc1nc(N2CCOC(C)(C)C2)c2[nH]c(N)c(S(=O)(=O)c3ccccc3)c2n1` [Example 139, 7-(benzenesulfonyl)-4-(2,2-dimethylmorpholin-4-yl)-2-methyl-5H-pyrrolo[3,2-d]pyrimidin-6-amine] displayed an EC50 of 0.013 µM.
